According to PubChem BioAssay (NCI):
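Compound exposure: 48 hours, 5 concentrations, 96-well plates. TGI denotes the concentration required for complete inhibition of growth.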

Key:
Assay in all cases: inhibition of tumour cell growth, NCI panel, 48 h
NCI-H226 lung = tested on: NCI-H226 lung
SK-MEL-2 melanoma = tested on: SK-MEL-2 melanoma
A549 NSCLC = tested on: A549 NSCLC
UACC-62 melanoma = tested on: UACC-62 melanoma
M19-MEL melanoma = tested on: M19-MEL melanoma
MOLT-4 leukemia = tested on: MOLT-4 leukemia
HL-60(TB) leukemia = tested on: HL-60(TB) leukemia
U251 CNS = tested on: U251 CNS
EKVX NSCLC = tested on: EKVX NSCLC
M14 melanoma = tested on: M14 melanoma
ACHN renal = tested on: ACHN renal
OVCAR-3 ovarian = tested on: OVCAR-3 ovarian
RXF 393 renal = tested on: RXF 393 renal
KM12 colon = tested on: KM12 colon
SK-MEL-5 melanoma = tested on: SK-MEL-5 melanoma
OVCAR-4 ovarian = tested on: OVCAR-4 ovarian
SN12C renal = tested on: SN12C renal
A498 renal = tested on: A498 renal
UO-31 renal = tested on: UO-31 renal
SF-295 CNS = tested on: SF-295 CNS
SK-OV-3 ovarian = tested on: SK-OV-3 ovarian
OVCAR-8 ovarian = tested on: OVCAR-8 ovarian
NCI-H522 lung = tested on: NCI-H522 lung
SF-539 CNS = tested on: SF-539 CNS
SF-268 CNS = tested on: SF-268 CNS
K-562 leukemia = tested on: K-562 leukemia
HCT-116 colon = tested on: HCT-116 colon
HT29 colon = tested on: HT29 colon
OVCAR-5 ovarian = tested on: OVCAR-5 ovarian
HCC-2998 colon = tested on: HCC-2998 colon
TK-10 renal = tested on: TK-10 renal
LXFL 529 NSCLC = tested on: LXFL 529 NSCLC
786-0 renal = tested on: 786-0 renal
MALME-3M melanoma = tested on: MALME-3M melanoma
HOP-62 NSCLC = tested on: HOP-62 NSCLC
DMS 273 small cell lung = tested on: DMS 273 small cell lung
LOX IMVI melanoma = tested on: LOX IMVI melanoma
CCRF-CEM leukemia = tested on: CCRF-CEM leukemia
NCI-H23 lung = tested on: NCI-H23 lung
UACC-257 melanoma = tested on: UACC-257 melanoma
SNB-19 CNS = tested on: SNB-19 CNS
SNB-78 CNS = tested on: SNB-78 CNS
COLO 205 colon = tested on: COLO 205 colon
SR leukemia = tested on: SR leukemia
KM20L2 colon = tested on: KM20L2 colon
XF 498 CNS = tested on: XF 498 CNS
IGROV1 ovarian = tested on: IGROV1 ovarian
NCI-H460 lung = tested on: NCI-H460 lung
SK-MEL-28 melanoma = tested on: SK-MEL-28 melanoma
SNB-75 CNS = tested on: SNB-75 CNS
RXF-631 renal = tested on: RXF-631 renal
DLD-1 colon = tested on: DLD-1 colon
SW-620 colon = tested on: SW-620 colon
CAKI-1 renal = tested on: CAKI-1 renal
RPMI-8226 leukemia = tested on: RPMI-8226 leukemia
DMS 114 small cell lung = tested on: DMS 114 small cell lung
HCT-15 colon = tested on: HCT-15 colon
HOP-92 NSCLC = tested on: HOP-92 NSCLC
HOP-18 NSCLC = tested on: HOP-18 NSCLC

## COc1ccc(=[O+]C)c2nssc1-2
NCI-H226 lung
  TGI: > 100 µM
SK-MEL-2 melanoma
  TGI: > 100 µM
A549 NSCLC
  TGI: > 100 µM
UACC-62 melanoma
  TGI: 67.7 µM
M19-MEL melanoma
  TGI: 40.2 µM
MOLT-4 leukemia
  TGI: > 100 µM
HL-60(TB) leukemia
  TGI: > 100 µM
U251 CNS
  TGI: 79.6 µM
EKVX NSCLC
  TGI: > 100 µM
M14 melanoma
  TGI: > 100 µM
ACHN renal
  TGI: > 100 µM
OVCAR-3 ovarian
  TGI: > 100 µM
RXF 393 renal
  TGI: > 100 µM
KM12 colon
  TGI: > 100 µM
SK-MEL-5 melanoma
  TGI: 35.8 µM
OVCAR-4 ovarian
  TGI: > 100 µM
SN12C renal
  TGI: > 100 µM
A498 renal
  TGI: > 100 µM
UO-31 renal
  TGI: > 100 µM
SF-295 CNS
  TGI: > 100 µM
SK-OV-3 ovarian
  TGI: > 100 µM
OVCAR-8 ovarian
  TGI: > 100 µM
NCI-H522 lung
  TGI: > 100 µM
SF-539 CNS
  TGI: 48.7 µM
SF-268 CNS
  TGI: > 100 µM
K-562 leukemia
  TGI: > 100 µM
HCT-116 colon
  TGI: > 100 µM
HT29 colon
  TGI: > 100 µM
OVCAR-5 ovarian
  TGI: > 100 µM
HCC-2998 colon
  TGI: > 100 µM
TK-10 renal
  TGI: > 100 µM
LXFL 529 NSCLC
  TGI: > 100 µM
786-0 renal
  TGI: > 100 µM
MALME-3M melanoma
  TGI: > 100 µM
HOP-62 NSCLC
  TGI: > 100 µM
DMS 273 small cell lung
  TGI: > 100 µM
LOX IMVI melanoma
  TGI: > 100 µM
CCRF-CEM leukemia
  TGI: > 100 µM
NCI-H23 lung
  TGI: > 100 µM
UACC-257 melanoma
  TGI: 71.5 µM
SNB-19 CNS
  TGI: > 100 µM
SNB-78 CNS
  TGI: > 100 µM
COLO 205 colon
  TGI: > 100 µM
SR leukemia
  TGI: > 100 µM
KM20L2 colon
  TGI: > 100 µM
XF 498 CNS
  TGI: > 100 µM
IGROV1 ovarian
  TGI: > 100 µM
NCI-H460 lung
  TGI: > 100 µM
SK-MEL-28 melanoma
  TGI: > 100 µM
SNB-75 CNS
  TGI: > 100 µM
RXF-631 renal
  TGI: > 100 µM
DLD-1 colon
  TGI: > 100 µM
SW-620 colon
  TGI: > 100 µM
CAKI-1 renal
  TGI: > 100 µM

## COc1ccc2c(c1)[n+]([O-])c(-c1c(Cl)cccc1Cl)c(N)[n+]2[O-]
NCI-H226 lung
  TGI: > 100 µM
SK-MEL-2 melanoma
  TGI: > 100 µM
RPMI-8226 leukemia
  TGI: > 100 µM
A549 NSCLC
  TGI: > 100 µM
UACC-62 melanoma
  TGI: > 100 µM
M19-MEL melanoma
  TGI: > 100 µM
MOLT-4 leukemia
  TGI: > 100 µM
HL-60(TB) leukemia
  TGI: > 100 µM
U251 CNS
  TGI: > 100 µM
EKVX NSCLC
  TGI: > 100 µM
M14 melanoma
  TGI: > 100 µM
ACHN renal
  TGI: > 100 µM
OVCAR-3 ovarian
  TGI: > 100 µM
KM12 colon
  TGI: > 100 µM
SK-MEL-5 melanoma
  TGI: 42.9 µM
OVCAR-4 ovarian
  TGI: > 100 µM
SN12C renal
  TGI: > 100 µM
A498 renal
  TGI: > 100 µM
UO-31 renal
  TGI: > 100 µM
SF-295 CNS
  TGI: > 100 µM
SK-OV-3 ovarian
  TGI: > 100 µM
OVCAR-8 ovarian
  TGI: > 100 µM
SF-268 CNS
  TGI: > 100 µM
K-562 leukemia
  TGI: > 100 µM
HT29 colon
  TGI: > 100 µM
OVCAR-5 ovarian
  TGI: > 100 µM
HCC-2998 colon
  TGI: > 100 µM
TK-10 renal
  TGI: > 100 µM
DMS 114 small cell lung
  TGI: > 100 µM
LXFL 529 NSCLC
  TGI: > 100 µM
786-0 renal
  TGI: > 100 µM
MALME-3M melanoma
  TGI: 48.4 µM
DMS 273 small cell lung
  TGI: > 100 µM
LOX IMVI melanoma
  TGI: > 100 µM
HCT-15 colon
  TGI: > 100 µM
CCRF-CEM leukemia
  TGI: > 100 µM
NCI-H23 lung
  TGI: 63.7 µM
UACC-257 melanoma
  TGI: 61.8 µM
SNB-19 CNS
  TGI: > 100 µM
SNB-78 CNS
  TGI: > 100 µM
COLO 205 colon
  TGI: 71.6 µM
KM20L2 colon
  TGI: > 100 µM
XF 498 CNS
  TGI: > 100 µM
IGROV1 ovarian
  TGI: > 100 µM
NCI-H460 lung
  TGI: > 100 µM
SK-MEL-28 melanoma
  TGI: 84 µM
SNB-75 CNS
  TGI: > 100 µM
HOP-92 NSCLC
  TGI: > 100 µM
RXF-631 renal
  TGI: 60.1 µM
DLD-1 colon
  TGI: > 100 µM
SW-620 colon
  TGI: > 100 µM
CAKI-1 renal
  TGI: > 100 µM

## O=C(O)C1(c2ccccc2)CCCNCC1 (configuration not stated)
NCI-H226 lung
  TGI: > 100 µM
SK-MEL-2 melanoma
  TGI: > 100 µM
RPMI-8226 leukemia
  TGI: > 100 µM
A549 NSCLC
  TGI: > 100 µM
UACC-62 melanoma
  TGI: > 100 µM
M19-MEL melanoma
  TGI: > 100 µM
MOLT-4 leukemia
  TGI: > 100 µM
HOP-18 NSCLC
  TGI: > 100 µM
U251 CNS
  TGI: > 100 µM
EKVX NSCLC
  TGI: > 100 µM
M14 melanoma
  TGI: > 100 µM
ACHN renal
  TGI: > 100 µM
OVCAR-3 ovarian
  TGI: > 100 µM
RXF 393 renal
  TGI: > 100 µM
KM12 colon
  TGI: > 100 µM
SK-MEL-5 melanoma
  TGI: > 100 µM
OVCAR-4 ovarian
  TGI: > 100 µM
SN12C renal
  TGI: > 100 µM
A498 renal
  TGI: > 100 µM
UO-31 renal
  TGI: > 100 µM
SF-295 CNS
  TGI: > 100 µM
SK-OV-3 ovarian
  TGI: > 100 µM
OVCAR-8 ovarian
  TGI: > 100 µM
NCI-H522 lung
  TGI: > 100 µM
SF-268 CNS
  TGI: > 100 µM
K-562 leukemia
  TGI: > 100 µM
HCT-116 colon
  TGI: > 100 µM
HT29 colon
  TGI: > 100 µM
OVCAR-5 ovarian
  TGI: > 100 µM
HCC-2998 colon
  TGI: > 100 µM
TK-10 renal
  TGI: > 100 µM
DMS 114 small cell lung
  TGI: > 100 µM
LXFL 529 NSCLC
  TGI: > 100 µM
786-0 renal
  TGI: > 100 µM
MALME-3M melanoma
  TGI: > 100 µM
HOP-62 NSCLC
  TGI: > 100 µM
DMS 273 small cell lung
  TGI: > 100 µM
LOX IMVI melanoma
  TGI: > 100 µM
HCT-15 colon
  TGI: > 100 µM
CCRF-CEM leukemia
  TGI: > 100 µM
NCI-H23 lung
  TGI: > 100 µM
UACC-257 melanoma
  TGI: > 100 µM
SNB-19 CNS
  TGI: > 100 µM
SNB-78 CNS
  TGI: > 100 µM
COLO 205 colon
  TGI: > 100 µM
SR leukemia
  TGI: > 100 µM
KM20L2 colon
  TGI: > 100 µM
IGROV1 ovarian
  TGI: > 100 µM
NCI-H460 lung
  TGI: > 100 µM
SK-MEL-28 melanoma
  TGI: > 100 µM
SNB-75 CNS
  TGI: > 100 µM
HOP-92 NSCLC
  TGI: > 100 µM
RXF-631 renal
  TGI: > 100 µM
DLD-1 colon
  TGI: > 100 µM
SW-620 colon
  TGI: > 100 µM
CAKI-1 renal
  TGI: > 100 µM
